The source of these data is patent US6916852B2, “Method for regulation of microvascular tone” (University of Tennessee Research Foundation, priority 2003, dated 2005).

Read-outs that look alike come from different tables or passages of the source.

For one data set, the system named is cremaster arterioles. Kind of data set: Intravital microscopy of cremaster muscle arterioles. The format is in vivo, C57-BL mice. How it is done: Male C57-BL mice age 7-8 weeks and weighing approximately 20 grams are anesthetized with an intramuscular injection of 100 to 150 microliters of a mixture of ketamine and xylazine (87 mg ketamine and 13 mg xylazine per ml) based on the weight of the individual animal. The body temperature was maintained at about 37° C. by convective heating. The animal is supinated, a midline incision is made in the ventrocervical region, and the underlying tissues are bisected laterally to expose the trachea. A tracheotomy is performed and the animal is intubated directly with PE50 tubing to facilitate ventilation. The wound is then closed.
The left rear limb is incised to expose the femoral neurovascular bundle and the femoral vein is isolated and catheterized with PE10 tubing attached to a syringe containing normal saline. The animal is then placed on a specially designed surgery board and the right testicle within the scrotum is oriented over a translumination observation window contained in the surgery board. The scrotum is irrigated with warmed (about 37° C.) physiological saline (4.3 mM NaHCO3, 126.4 mM NaCl, 0.9 mM KCl, 0.4 mM CaCl2, 0.2 mM MgSO4). The scrotum is incised medially and the underlying fascia is bluntly dissected to expose the testicle. The apical portion of the cremaster muscle is pinned distally on the surgery board and the cremaster muscle is incised along its long axis to expose the testicle. The testicle is then gently forced back into the inguinal canal, allowing the cremaster muscle to be pinned evenly around the translumination window.
All experiments are carried out using an industrial grade microscope (Nikon MM-11) with two light sources, bright field (OptiQuip 75 W xenon) and fluorescent (Nikon 150 W mercury). The primary camera assembly has a chilled charged coupled device (CCD) and controller (Hamamastu C5985). The secondary camera assembly has a CCD camera (MTI CCD72) in conjunction with an intensifier (MTI […]). Experiments are viewed on a video monitor and recorded on a digital video recorder for off-line processing.
The prepared animal, as described above in Examples 1 and 2, is placed on the stage of the microscope on the surgery board with the translumination window. Exposed tissues are irrigated with warmed physiological saline through which a N2/CO2 (95%/5%) mixture is bubbled. The tissue is allowed to equilibrate until normal blood flow is observed or perfusate flow stabilizes, during which time the tissue is scanned at 1-X for A1-A4 arterioles. The arterioles are then tested for physiological tone by the topical administration of 0.1 mM adenosine (positive control).
(§1) After the arteriole returns to resting diameter (about 10 minutes) the tissue is treated topically with test chemical drugs or the drugs are administered systemically and the responses of the arterioles are viewed at 20× magnification. Topical treatment is by directly applying a vehicle solution (1:1:18 stepantex:ethanol:saline) or a drug plus vehicle solution. Systemic treatments in the whole animal are administered through the femoral vein catheter. The arteriole is video recorded during the entire procedure for off-line analysis. The blood pressure is monitored throughout the procedure utilizing a 1.4 F (0.56 mm) Millar catheter pressure transducer inserted into the left ventricle via the aorta. Systolic and diastolic blood pressure, and heart rate are recorded. Drug dosing regimens for the animals are based on literature values or values experimentally determined via drug titration curves on a mg/kg basis.
The video images of Example 3 are analyzed off-line by first converting the digital AVI files into digital image files followed by analysis using MetaMorph software (Universal Imaging Co.) on a Dell Optiplex GX-1. Calibration of the software is done using a micrometer slide and measurements are defined in micrometers/pixel. […]

For data set [1] the following is noted: rats subsequently bled; doubled from about 30 minutes; cited from earlier work.
The next data set has as its system cannabinoid receptors. The following applies: cited from earlier work; for effect on blood pressure, intra-arterially administered (Adams): intra-arterial; for effect on blood pressure, intravenously administered (Adams): intravenous.
Another data set has as its system mesenteric arterioles. Put plainly: Intravital microscopy of mesenteric arterioles. The format is in vivo, C57-BL mice. The settings on record: topical. How it is done:
Animals as described in Example 1 are prepared for surgery as described in Example 1. The animal is supinated on the surgery board so that the ventral portion of the animal faces the observation window. Upon irrigation with warmed physiological saline, a midline incision is made through the linea alba. A loop of small intestine from the lower duodenal segment is extracted and pinned around the observation window, with the pins passing through the proximal mesentery and not through the intestine proper.
All experiments are carried out using an industrial grade microscope (Nikon MM-11) with two light sources, bright field (OptiQuip 75 W xenon) and fluorescent (Nikon 150 W mercury). The primary camera assembly has a chilled charged coupled device (CCD) and controller (Hamamastu C5985). The secondary camera assembly has a CCD camera (MTI CCD72) in conjunction with an intensifier (MTI […]). Experiments are viewed on a video monitor and recorded on a digital video recorder for off-line processing. […]
as §1, with “Topical treatment is by directly applying a vehicle solution (1:1:18 stepantex:ethanol:saline) or a drug plus vehicle solution. Systemic treatments in the whole animal are administered through the femoral vein catheter.” left out
The video images of Example 3 are analyzed off-line by first converting the digital AVI files into digital image files followed by analysis using MetaMorph software (Universal Imaging Co.) on a Dell Optiplex GX-1. […]
Data analysis is carried out using GraphPad, Prism software. […] Time course curves are fit using non-linear regression from which the rate of vessel constriction or dilation is calculated. […]

The conditions of data set [2]: cited from earlier work; for changes in blood pressure or renal function (Dilger): therapeutic doses for 15 days, healthy young or elderly subjects.
Where [3] appears, read: systemically administered, 2 mg/kg NS-398.

For `CCCCCc1cc(O)c2c(c1)OC(C)(C)[C@@H]1CC=C(C)C[C@@H]21` [THC, Δ^8-tetrahydrocannabinol], the “time post-administration of return to baseline diameter (FIG. 3B)” value in the data set with cremaster arterioles (systemic, 12 mg/kg THC alone) is reported as “about 30 seconds”. For the same compound, the “initial mild constriction of arterioles (FIG. 3B)” value in the data set with cremaster arterioles (systemic, initial 100 seconds) is recorded as “about 15%”. In the data set with cremaster arterioles (topical), the “response of cremaster arterioles to topical application (FIG. 3A)” value is “mirrors that of the response to systemic administration of THC”. The “survival time (Wagner)” value in data set [1] is roughly 60 min. Besides, in the data set with cannabinoid receptors, the “effect on blood pressure, intra-arterially administered (Adams)” value was “produced an increase in blood pressure indicative of vasoconstriction”; the “effect on blood pressure, intravenously administered (Adams)” value is “transient increase in blood pressure that lasted only about one minute and that was followed by a more prolonged hypotensive response”. Moreover, the “effect on blood pressure, intravenously administered (Adams)” value in the data set with cannabinoid receptors (listed as Δ^8-tetrahydrocannabinol) is on record as “caused decreases in blood pressure”. Besides, in the data set on mesenteric arterioles, the “duration of initial brief constriction (FIG. 4)” value is on record as “less than 5 seconds”, the “response of mesenteric arterioles (FIG. 4)” value is “biphasic response” and the “time post administration of return to baseline (FIG. 4)” value is reported as “about 100 seconds”.

As to `Nc1ncnc2c1ncn2[C@@H]1O[C@H](CO)[C@@H](O)[C@H]1O` [adenosine], in the data set with cremaster arterioles (topical administration of adenosine, cremaster arteriole), the “change in arteriole diameter (FIG. 1B)” value is recorded as “Dilation of the arteriole”.

Consider `O=C(O)Cc1ccccc1Nc1c(Cl)cccc1Cl` [diclofenac], for which, in data set [2], the “changes in blood pressure or renal function (Dilger)” value is “not associated with significant changes in blood pressure or renal function”.

For the compound `CCCCCCC(C)(C)c1cc(O)c2c(c1)OC(C)(C)[C@@H]1CC=C(CO)C[C@@H]21` [HU-210], the “survival time (Wagner)” value in data set [1] is roughly 60 min.

`CS(=O)(=O)Nc1ccc([N+](=O)[O-])cc1OC1CCCCC1` [NS-398, N-(2-cyclohexyloxy-4-nitrophenyl) methane sulphonamide]: in the data set with cremaster arterioles (setting [3]), the “initial increase in arteriolar diameter (FIG. 2)” value is roughly 8% and the “time to return to baseline diameter (FIG. 2)” value is no more than 3 min.

For the compound `CCCCC/C=C\C/C=C\C/C=C\C/C=C\CCCC(=O)NCCO` [ANA, arachidonyl ethanolamide], the “change in cremaster arteriolar diameter (FIG. 5B)” value with cremaster arterioles (systemically administered, by about 200 seconds post-administration) is on record as “causes a dilatation of cremaster arterioles”. Also, in the data set with cremaster arterioles (topically administered, by about 200 seconds post-administration), the “change in cremaster arteriolar diameter (FIG. 5A)” value is “causes a dilatation of cremaster arterioles”. Besides, the “effect on blood pressure (Kunos, U.S. Pat. No. 5,939,429)” value in the data set on cannabinoid receptors (in vivo) is on record as “causes hypotension”.

`CCCCCc1cc(O)c2c(c1)OC(C)(C)[C@@H]1CCC(C)=C[C@@H]21` [Δ^9-tetrahydrocannabinol]: in the data set on cannabinoid receptors, the “effect on blood pressure, intra-arterially administered (Adams)” value is on record as “produced an increase in blood pressure indicative of vasoconstriction” and the “effect on blood pressure, intravenously administered (Adams)” value is recorded as “caused decreases in blood pressure”.

In the case of `CS(=O)(=O)c1ccc(C2=C(c3ccccc3)C(=O)OC2)cc1` [rofecoxib], in data set [2] (in vivo), the “effect on blood pressure (Johnson)” value is recorded as “found to elevate blood pressure”.

Consider `Cc1ccc(-c2cc(C(F)(F)F)nn2-c2ccc(S(N)(=O)=O)cc2)cc1` [celecoxib], for which the “effect on blood pressure (Johnson)” value in data set [2] (patients, administered for six weeks) is given as “inconclusive”. The “changes in blood pressure or renal function (Dilger)” value in data set [2] is “not associated with significant changes in blood pressure or renal function”.
